Data from patent US20250281451A1, “COMPOSITIONS AND METHODS FOR MODULATING SLEEP AND USES THEREOF” (Brightseed, Inc., priority 2022, published 2025).
Entries after “also recorded” stand apart in the source; their conditions may differ.

How the values were obtained:
Orx2 = target: T1, Orx2 (Homo sapiens, UniProt O43614); assay: Orx2 antagonist screening, chemiluminescent cell assay with Orexin B EC80; assay type: cell-based; settings: for % Agonism Orx2 at Relative IC50: absolute percent agonism at the μM concentration of the relative OR2 IC50; for IC50: antagonist mode against Orexin B EC80, read-out: Relative IC50 of Orx2
T1 construct: DiscoverX
T1 sequence (O43614 1-444): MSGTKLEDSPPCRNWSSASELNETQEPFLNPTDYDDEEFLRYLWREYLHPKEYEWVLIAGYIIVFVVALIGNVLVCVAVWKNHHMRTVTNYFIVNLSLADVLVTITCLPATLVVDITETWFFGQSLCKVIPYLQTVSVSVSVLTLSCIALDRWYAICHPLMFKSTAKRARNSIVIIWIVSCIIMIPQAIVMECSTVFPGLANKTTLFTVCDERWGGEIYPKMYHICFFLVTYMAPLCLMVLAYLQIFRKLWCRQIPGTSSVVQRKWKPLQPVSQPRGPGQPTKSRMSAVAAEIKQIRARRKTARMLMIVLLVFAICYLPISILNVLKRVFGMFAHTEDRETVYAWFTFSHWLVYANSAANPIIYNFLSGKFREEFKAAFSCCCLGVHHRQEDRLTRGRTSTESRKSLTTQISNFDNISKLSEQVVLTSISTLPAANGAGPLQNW
Experimental: For this example, the following protocol was used: 1.) seed cells in 20 μL Cell Plating Reagent; 2.) incubate cells overnight at 37° C. and 5% CO2; 3.) treat cells with 2.5 μL 10× antagonist prepared in Compound Dilution Buffer (For OR2 screening, 2.5 μL of 1:100 natural product sample in DiscoverX cell plating reagent. Control antagonist, Seltorexant, 10× stock was prepared at 1500 nM); 4.) incubate for 30 minutes at 37° C. and 5% CO2; 5.) treat cells with 2.5 μL 10× agonist prepared in Compound Dilution Buffer (For OR2 screening, 2.5 μL of 10× Orexin B EC80, 252.7 nM); 6.) incubate for 90 minutes at 37° C. and 5% CO2; 7.) add 12.5 μL Working Detection Solution; 8.) incubate for 1 hour at room temperature in the dark; and 9.) read chemiluminescent signal.
(§1) The plants described herein were tested to determine the concentration, in μM, to achieve the relative IC50 of OR2 receptor, the absolute percent agonism achieved at the μM concentration of the relative OR2 IC50, the percentage receptor activity at the concentration, in μM, needed to achieve IC50 in OR2, the percentage cell viability, measured by XTT assay, at the IC50 μM concentration, the concentration of the fraction, in fold dilution, needed to achieve IC50 of OR2, and the percentage receptor activity at the concentration of the fraction, in fold dilution, needed to achieve IC50 of OR2.

cells = assay: cell viability, XTT assay; assay type: cell-based; settings: at the IC50 μM concentration of the compound
Experimental: as §1

Orx1 = target: T2, Orx1 (Homo sapiens, UniProt O43613); assay: % agonism on Orx1 at the OR2 IC50 concentration; assay type: cell-based; settings: at the μM concentration needed to achieve IC50 in OR2
T2 sequence (O43613 1-425): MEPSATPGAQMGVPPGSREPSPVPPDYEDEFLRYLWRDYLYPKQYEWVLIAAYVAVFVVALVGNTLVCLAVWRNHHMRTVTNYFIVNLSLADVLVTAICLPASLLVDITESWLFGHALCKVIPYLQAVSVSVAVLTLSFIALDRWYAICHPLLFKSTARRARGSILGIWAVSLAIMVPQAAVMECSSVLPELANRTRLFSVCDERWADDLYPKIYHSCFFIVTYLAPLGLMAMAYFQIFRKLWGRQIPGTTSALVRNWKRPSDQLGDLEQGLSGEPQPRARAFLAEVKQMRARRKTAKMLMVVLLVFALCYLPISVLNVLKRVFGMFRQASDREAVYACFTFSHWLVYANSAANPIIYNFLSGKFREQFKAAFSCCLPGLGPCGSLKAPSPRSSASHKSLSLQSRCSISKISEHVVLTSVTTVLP
Experimental: For this example, the following protocol was used: 1.) seed cells in 20 μL Cell Plating Reagent; 2.) incubate cells overnight at 37° C. and 5% CO2; 3.) treat cells with 2.5 μL 10× antagonist prepared in Compound Dilution Buffer (For OR2 screening, 2.5 μL of 1:100 natural product sample in DiscoverX cell plating reagent.
as §1

male Sprague-Dawley rat = assay: in vivo tolerability, dose escalation, adverse effect observation; settings: for 15 min effects (adverse effects) / 30 min effects (adverse effects) / 60 min effects (adverse effects): n=3 rats, (x/3) animals affected; for tolerability: all four doses (30, 100, 315 and 500 mg/kg) p.o., 60 min observation
Experimental: In this example, the in vivo tolerability of Compounds 26, 21, 29, and 13 was assessed.
Naïve rats (male Sprague-Dawley rat) were acclimatized to the procedure room in their home cages up to 7 days following arrival to the test facility, with food and water available ad libitum. On the day of experiment, animals were acclimatized to the experimental room for at least one hour prior to the beginning of any experiment. All animals were tail marked, weighed and randomly assigned to treatment groups. The animals (n=3 per dose) were treated with either Compounds 26, 21, 29, and 13 (10 mL/kg, p.o.). For each compound a maximum of 4 doses were tested using a dose escalation procedure starting from 30 mg/kg. If this initial dose is well-tolerated, the dosage is increased to 100 mg/kg. If the 30 mg/kg dose is not tolerated, the dose is reduced to 15 mg/kg. Following the dose escalation procedure, if the 100 mg/kg dose is well-tolerated, the dose is escalated to 315 mg/kg. If it is not tolerated, the dose is decreased to 60 mg/kg. The pattern continues with the next decision point: if 315 mg/kg is well-tolerated, the dose is increased to the maximum of 500 mg/kg. If 315 mg/kg is not tolerated, the dose is decreased to 200 mg/kg.
The compounds would be considered not tolerated if three or more adverse effects (or any severe adverse effect) occurred at specific dose during the entire period of 60 mins. […] Mild—slight decrease in activity, responsive when provoked. Moderate—decrease in activity, less responsive when provoked.

Row | SMILES | % Agonism Orx2 at Relative IC50 (Orx2) | IC50 (Orx2) | % Agonism on Orx1 at OR2 IC50 (Orx1) | IC50 Dilution of Orx2 (fold dilution) (Orx2; concentration of the fraction of the plant source, in fold dilution, needed to achieve IC50 of OR2) | % Cell viability at IC50 (cells) | 15 min effects (adverse effects) (male Sprague-Dawley rat; 30 mg/kg p.o.) | 30 min effects (adverse effects) (male Sprague-Dawley rat; 30 mg/kg p.o.) | 60 min effects (adverse effects) (male Sprague-Dawley rat; 30 mg/kg p.o.) | 15 min effects (adverse effects) (male Sprague-Dawley rat; 100 mg/kg p.o.) | 30 min effects (adverse effects) (male Sprague-Dawley rat; 100 mg/kg p.o.) | 60 min effects (adverse effects) (male Sprague-Dawley rat; 100 mg/kg p.o.) | 15 min effects (adverse effects) (male Sprague-Dawley rat; 315 mg/kg p.o.) | 30 min effects (adverse effects) (male Sprague-Dawley rat; 315 mg/kg p.o.) | 60 min effects (adverse effects) (male Sprague-Dawley rat; 315 mg/kg p.o.) | 15 min effects (adverse effects) (male Sprague-Dawley rat; 500 mg/kg p.o.) | 30 min effects (adverse effects) (male Sprague-Dawley rat; 500 mg/kg p.o.) | 60 min effects (adverse effects) (male Sprague-Dawley rat; 500 mg/kg p.o.) | tolerability (male Sprague-Dawley rat)
1 | O=c1cc(-c2ccc(O)c(O)c2)oc2cc(O)cc(O)c12 [Compound 13, 2-(3,4-dihydroxyphenyl)-5,7-dihydroxychromen-4-one] | 50% | 72.5 µM | 42.72% | 2283.9 fold dilution | 98.24% | No adverse effects | No adverse effects | Reduced activity (3/3) | No adverse effects | Reduced activity | No adverse effects | No adverse effects | No adverse effects | No adverse effects | Pica (2/3) | Reduced activity; also recorded: Pica (2/3) | Reduced activity (1/3) | well-tolerated
2 | COc1cc(-c2oc3c(OC)c(O[C@@H]4O[C@H](COC(C)=O)[C@@H](O)[C@H](O)[C@H]4O[C@@H]4O[C@@H](C)[C@H](O)[C@@H](O)[C@H]4O)cc(O)c3c(=O)c2O)ccc1O [Compound 25, [(2R,3S,4S,5R,6S)-6-[3,5-dihydroxy-2-(4-hydroxy-3-methoxyphenyl)-8-methoxy-4-oxochromen-7-yl]oxy-3,4-dihydroxy-5-[(2S,3R,4R,5R,6S)-3,4,5-trihydroxy-6-methyloxan-2-yl]oxyoxan-2-yl]methyl acetate] | 50% | 148 µM | 103.7053% |  | 91.68% |  |  |  |  |  |  |  |  |  |  |  |  | 
3 | O=c1c(O[C@@H]2OC[C@H](O)[C@H](O)[C@H]2O)c(-c2ccc(O)cc2)oc2cc(O)cc(O)c12 [Compound 26, 5,7-dihydroxy-2-(4-hydroxyphenyl)-3-[(2S,3R,4S,5S)-3,4,5-trihydroxyoxan-2-yl]oxychromen-4-one] | 40% | 179 µM | 60.57% |  | 98.95% | Reduced activity | No adverse effects | Reduced activity (3/3) | Reduced activity | Reduced activity | Reduced activity (3/3) | No adverse effects | No adverse effects | No adverse effects | No adverse effects | Reduced activity | No adverse effects | well-tolerated
4 | COc1c(O)cc2oc(-c3ccc(O[C@@H]4O[C@H](C(=O)O)[C@@H](O)[C@H](O)[C@H]4O)c(O)c3)c(OC)c(=O)c2c1O [Compound 28, (2S,3S,4S,5R,6S)-6-[4-(5,7-dihydroxy-3,6-dimethoxy-4-oxochromen-2-yl)-2-hydroxyphenoxy]-3,4,5-trihydroxyoxane-2-carboxylic acid] | 50% | 154 µM | 75.74% |  | 107.58% |  |  |  |  |  |  |  |  |  |  |  |  | 
5 | Cc1cc(O)c2c(c1)C(=O)c1cc(O)cc(O[C@@H]3O[C@H](CO)[C@@H](O)[C@H](O)[C@H]3O)c1C2=O [Compound 30, 1,6-dihydroxy-3-methyl-8-[(2S,3R,4S,5S,6R)-3,4,5-trihydroxy-6-(hydroxymethyl)oxan-2-yl]oxyanthracene-9,10-dione] | 50% | 81.3 µM | 26.23% |  | 100% |  |  |  |  |  |  |  |  |  |  |  |  | 

Further lines, with some results ahead:

Row | % Agonism Orx2 at Relative IC50 (Orx2) | IC50 (Orx2) | % Agonism on Orx1 at OR2 IC50 (Orx1) | SMILES | IC50 Dilution of Orx2 (fold dilution) (Orx2; concentration of the fraction of the plant source, in fold dilution, needed to achieve IC50 of OR2) | % Cell viability at IC50 (cells) | 15 min effects (adverse effects) (male Sprague-Dawley rat; 30 mg/kg p.o.) | 30 min effects (adverse effects) (male Sprague-Dawley rat; 30 mg/kg p.o.) | 60 min effects (adverse effects) (male Sprague-Dawley rat; 30 mg/kg p.o.) | 15 min effects (adverse effects) (male Sprague-Dawley rat; 100 mg/kg p.o.) | 30 min effects (adverse effects) (male Sprague-Dawley rat; 100 mg/kg p.o.) | 60 min effects (adverse effects) (male Sprague-Dawley rat; 100 mg/kg p.o.) | 15 min effects (adverse effects) (male Sprague-Dawley rat; 315 mg/kg p.o.) | 30 min effects (adverse effects) (male Sprague-Dawley rat; 315 mg/kg p.o.) | 60 min effects (adverse effects) (male Sprague-Dawley rat; 315 mg/kg p.o.) | 15 min effects (adverse effects) (male Sprague-Dawley rat; 500 mg/kg p.o.) | 30 min effects (adverse effects) (male Sprague-Dawley rat; 500 mg/kg p.o.) | 60 min effects (adverse effects) (male Sprague-Dawley rat; 500 mg/kg p.o.) | tolerability (male Sprague-Dawley rat)
6 | 50% | 174 µM | 104.1268% | C[C@@H]1O[C@@H](O[C@H]2[C@H](Oc3c(-c4ccc(O)cc4)oc4cc(O)cc(O)c4c3=O)O[C@H](CO)[C@@H](O)[C@@H]2O)[C@H](O)[C@H](O)[C@H]1O [Compound 23, 3-[(2S,3R,4S,5S,6R)-4,5-dihydroxy-6-(hydroxymethyl)-3-[(2S,3R,4R,5R,6S)-3,4,5-trihydroxy-6-methyloxan-2-yl]oxyoxan-2-yl]oxy-5,7-dihydroxy-2-(4-hydroxyphenyl)chromen-4-one] |  | 107.68% |  |  |  |  |  |  |  |  |  |  |  |  | 
7 | 45% | 191 µM | 48.83% | CC1O[C@@H](OC2C(O)[C@H](Oc3c(-c4ccc(O)cc4)oc4cc(O)cc(O)c4c3=O)OC(CO)[C@H]2O)[C@@H](O)C(O)[C@H]1O (stereo partly drawn) [Compound 24, 3-[(2S,5R)-3,5-dihydroxy-6-(hydroxymethyl)-4-[(2S,3S,5R)-3,4,5-trihydroxy-6-methyloxan-2-yl]oxyoxan-2-yl]oxy-5,7-dihydroxy-2-(4-hydroxyphenyl)chromen-4-one] |  | 96.12% |  |  |  |  |  |  |  |  |  |  |  |  | 
8 | 45% | 154 µM | 56.18% | O=c1c(O[C@@H]2O[C@@H](CO)[C@H](O)[C@H]2O)c(-c2ccc(O)cc2)oc2cc(O)cc(O)c12 [Compound 27, 3-[(2S,3R,4R,5S)-3,4-dihydroxy-5-(hydroxymethyl)oxolan-2-yl]oxy-5,7-dihydroxy-2-(4-hydroxyphenyl)chromen-4-one] |  | 101.69% |  |  |  |  |  |  |  |  |  |  |  |  | 
